Measured values taken from patent publication US10082506B2 (Wisconsin Alumni Research Foundation, priority 2014, dated 2018).
Where two headings read alike, the source gives them in different places.

Columns and labels:
hIntL-1 [1] = biological target: T1, hIntL-1 (Homo sapiens, UniProt Q8WWA0); assay: hIntL-1 carbohydrate binding ELISA-like assay (immobilized biotinylated carbohydrates); parameters: made in house; host or cells: HEK 293T (transient transfection, suspension); details: for hIntL-1 binding to immobilized carbohydrate in ELISA: immobilized carbohydrate-biotin ligand
Procedure: hIntL-1 Carbohydrate Binding ELISA-like Assay. To fabricate carbohydrate-displaying surfaces, 0.5 μg of streptavidin (Prozyme, cat. no. SA20) was adsorbed onto a Maxisorp (Nunc) flat bottom 96 well plate in PBS. Wells were washed with PBS and then coated with 5 μM of carbohydrate-biotin ligand in PBS for 1 hour at 22° C. Wells were blocked with bovine serum albumin (BSA) in ELISA buffer (20 mM HEPES (7.4) 150 mM NaCl, 10 mM CaCl2, and 0.1% tween-20). Samples containing hIntL-1 were prepared by serial dilution into ELISA buffer+0.1% BSA and added to wells for 2 hours at 22° C. Wells were washed four times with ELISA buffer. Bound hIntL-1 was detected using 0.75 μg/mL of a sheep IgG hIntL-1 antibody (R&D Systems, cat. no. AF4254) in ELISA buffer+0.1% BSA for 2 hours at 22° C. Wells were washed with ELISA buffer. A donkey anti-sheep IgG horseradish peroxidase (HRP) conjugate (Jackson ImmunoResearch Laboratories) was added at a 1:5,000 dilution in ELISA buffer+0.1% BSA for 1 hour at 22° C. Wells were washed and hIntL-1 was detected colorimetrically with addition of 1-Step Ultra TMB-ELISA (Pierce). Once sufficient signal was achieved (typically <2 min.), the reaction was quenched with addition of equal volume 2 M H2SO4. Plates were read at 450 nm on an EL×800 plate reader (Bio-Tek). […] Data were analyzed on Prism6 (GraphPad). Data were fit to the one site-specific binding equation.

hIntL-1 [2] = biological target: T1, hIntL-1; assay: hIntL-1 surface plasmon resonance on immobilized carbohydrates; type: binding; parameters: made in house; host or cells: HEK 293T (transient transfection, suspension); details: concentrations up to 6-fold higher than the β-Galf KD
Procedure: hIntL-1 Surface Plasmon Resonance (SPR). All hIntL-1 SPR was performed on a ProteOn XPR36 (Bio-Rad) at the University of Wisconsin-Madison Department of Biochemistry Biophysics Instrumentation Facility (BIF). To measure hIntL-1 binding, ProteOn NLC sensor chips (Bio-Rad) (NeutrAvidin coated chips) were used to capture carbohydrate-biotin ligand. All experiments presented here were conducted at surface saturated levels of ligand, ˜200 RU. In all experiments, captured biotin served as a control. Samples containing purified hIntL-1 were prepared by serial dilution into hIntL-1 SPR running buffer (20 mM HEPES (7.4) 150 mM NaCl, 1 mM CaCl2, and 0.005% tween-20). Surfaces were regenerated with short injections of 10 mM HCl. All data was interspot corrected and processed using the Bio-Rad ProteOn software package.

hIntL-1 [3] = biological target: T1, hIntL-1; details: reported by Tsuji et al., 2001; read-out: apparent KD / apparent affinity for hIntL-1; cited from earlier work
[4] = test system: UDP-galactopyranose mutase (UGM); details: UGM from the species listed; cited from earlier work
Strep-hIntL-1 = biological target: T2, Strep-hIntL-1 (Homo sapiens, UniProt Q8WWA0); assay: Strep-hIntL-1 binding to S. pneumoniae serotypes; details: detected with anti-Strep-tag:Oyster 642 nm antibody
T2 construct: made in house; host or cells: HEK 293T (transient transfection)

Strep-mIntL-1 = Strep-mIntL-1 (Mus musculus, UniProt O88310); details: SPR, referenced to biotin channel
hIntL-1 [5] = biological target: T1, hIntL-1; assay: hIntL-1 on CFG mammalian glycan array v5.1; type: binding; parameters: made in house; host or cells: HEK 293T (transient transfection, suspension); details: hIntL-1 50 and 200 μg/ml

T1 sequence (Q8WWA0 19-313): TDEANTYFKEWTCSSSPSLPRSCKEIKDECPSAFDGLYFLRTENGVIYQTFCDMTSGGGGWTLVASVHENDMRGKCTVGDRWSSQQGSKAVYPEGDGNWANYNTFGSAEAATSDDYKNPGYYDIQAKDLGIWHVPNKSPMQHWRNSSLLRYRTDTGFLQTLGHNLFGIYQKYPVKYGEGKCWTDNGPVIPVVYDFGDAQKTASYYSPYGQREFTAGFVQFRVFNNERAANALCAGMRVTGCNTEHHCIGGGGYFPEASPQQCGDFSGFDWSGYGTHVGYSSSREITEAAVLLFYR
T2 sequence (Q8WWA0 19-313): as above
Chain of Strep-mIntL-1 (O88310 19-298): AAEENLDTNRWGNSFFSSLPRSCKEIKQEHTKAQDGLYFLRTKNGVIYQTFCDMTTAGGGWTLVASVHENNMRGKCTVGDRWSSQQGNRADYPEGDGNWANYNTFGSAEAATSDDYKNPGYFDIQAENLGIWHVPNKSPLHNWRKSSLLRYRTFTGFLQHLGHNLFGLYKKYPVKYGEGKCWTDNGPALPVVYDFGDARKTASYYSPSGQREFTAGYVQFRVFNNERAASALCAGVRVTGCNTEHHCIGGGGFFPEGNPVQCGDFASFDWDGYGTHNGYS

O=C(CCCCC1SCC2NC(=O)NC21)NCCOCCOCCOCCOCc1cn(CCCCCCCCCC=CCOC2OC(C(O)CO)C(O)C2O)nn1 (stereo not drawn)
Kd (hIntL-1 [1]; disulfide-linked trimer, immobilized biotinylated carbohydrate, read-out: apparent avidity (apparent Kd) of trimeric hIntL-1 for immobilized ligand): 85 ± 14 nM | hIntL-1 binding to immobilized carbohydrate in SPR (hIntL-1 [2]): robust binding

CC(=O)N[C@H]1C(O)O[C@H](CO)[C@@H](O[C@@H]2O[C@@H]([C@H](O)CO)[C@H](O)[C@H]2O)[C@@H]1O (stereo partly drawn) [2-acetamido-2-deoxy-4-O-beta-D-galactofuranosyl-D-glucopyranose]
Kd (hIntL-1 [3]): 9 mM

O=C(O)C(Cc1ccc(I)cc1)Nc1nc(-c2ccc(Cl)c(Cl)c2)cs1 (stereo not drawn) [3-(4-iodophenyl)-2-[4-(3,4-dichlorophenyl)-thiazol-2-ylamino]-propionic acid]
inhibition of UGM [4]: active against UGM

Cc1c(C(=O)c2ccc(Cl)cc2)c(O)nn1-c1ccc(Cl)cc1 [4-chlorophenyl)-[1-(4-chlorophenyl)-3-hydroxy-5-methyl-1H-pyrazol-4-yl]-methanone]
inhibition of UGM [4]: inhibits UGM

O=C[C@H](O)[C@H](O)[C@H](O)CO [D-ribose]
Kd (hIntL-1 [3]): < 5 mM

O=C(O)CN(CCN(CC(=O)O)CC(=O)O)CC(=O)O [EDTA]
effect of additive on hIntL-1 binding to S. pneumoniae (Strep-hIntL-1): abrogate binding | effect of additive on hIntL-1 binding to β-Galf (hIntL-1 [1]; hIntL-1 conditioned HEK culture media, 25 mM EDTA): completely abolished binding | effect of additive on mIntL-1 carbohydrate binding (Strep-mIntL-1): prevents carbohydrate binding

CC(=O)N[C@H]1[C@H](OC[C@H]2OC(O)[C@H](NC(C)=O)[C@@H](O)[C@H]2O)O[C@H](CO)[C@H](O)[C@@H]1O (stereo partly drawn) [GalNAcβ1-6GalNAc]
hIntL-1 binding signal on CFG mammalian glycan array (hIntL-1 [5]): highest signal

CC(=O)N[C@H]1[C@H]([C@H](O)[C@H](O)CO)OC(O)(C(=O)O)C[C@@H]1O (stereo partly drawn) [Neu5Ac, N-acetyl-neuraminic acid]
hIntL-1 binding to immobilized carbohydrate in ELISA (hIntL-1 [1]): lack of affinity | hIntL-1 binding to immobilized carbohydrate in ELISA (hIntL-1 [1]; listed as α-Neu5Ac): does not bind | hIntL-1 binding signal on CFG mammalian glycan array (hIntL-1 [5]): lack of affinity

OCC(O)CO [glycerol]
effect of additive on hIntL-1 binding to S. pneumoniae (Strep-hIntL-1): abrogate binding

OC[C@H]1O[C@@H](O)[C@H](O)[C@@H](O)[C@H]1O [β-Galp, β-galactopyranose]
hIntL-1 binding to immobilized carbohydrate in SPR (hIntL-1 [2]): small response
